# Data from ChEMBL document CHEMBL5212743, “Selectivity Literature for EUbOPEN Chemogenomics Library wave 3” (2023).
# Experiments:
# [1] = molecular target: T1, Gamma-aminobutyric acid receptor subunit alpha-1 (Homo sapiens, UniProt P14867); assay: Selectivity interaction (GPCR panel (PDSP screen)) EUB0000306b GABRA1
# T1 sequence (P14867 whole entry): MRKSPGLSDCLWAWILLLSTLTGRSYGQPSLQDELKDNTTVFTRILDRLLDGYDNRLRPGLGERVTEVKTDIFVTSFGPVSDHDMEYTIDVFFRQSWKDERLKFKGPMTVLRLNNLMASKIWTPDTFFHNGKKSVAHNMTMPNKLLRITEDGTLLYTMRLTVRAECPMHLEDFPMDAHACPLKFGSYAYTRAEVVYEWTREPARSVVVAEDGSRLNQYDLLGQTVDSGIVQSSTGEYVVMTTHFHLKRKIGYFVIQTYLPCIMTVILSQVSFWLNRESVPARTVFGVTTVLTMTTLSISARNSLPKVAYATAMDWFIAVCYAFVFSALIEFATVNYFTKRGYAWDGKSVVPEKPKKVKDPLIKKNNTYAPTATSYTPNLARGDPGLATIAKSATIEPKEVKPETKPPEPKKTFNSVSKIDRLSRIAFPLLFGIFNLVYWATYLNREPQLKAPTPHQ
# [2] = molecular target: T2, Serine/threonine-protein kinase TAO3 (Homo sapiens) (UniProt Q9H2K8); assay: Selectivity interaction (KinomeScan (DiscoverX)) EUB0000306b TAOK3; details: at 1 µM
# T2 sequence (whole entry): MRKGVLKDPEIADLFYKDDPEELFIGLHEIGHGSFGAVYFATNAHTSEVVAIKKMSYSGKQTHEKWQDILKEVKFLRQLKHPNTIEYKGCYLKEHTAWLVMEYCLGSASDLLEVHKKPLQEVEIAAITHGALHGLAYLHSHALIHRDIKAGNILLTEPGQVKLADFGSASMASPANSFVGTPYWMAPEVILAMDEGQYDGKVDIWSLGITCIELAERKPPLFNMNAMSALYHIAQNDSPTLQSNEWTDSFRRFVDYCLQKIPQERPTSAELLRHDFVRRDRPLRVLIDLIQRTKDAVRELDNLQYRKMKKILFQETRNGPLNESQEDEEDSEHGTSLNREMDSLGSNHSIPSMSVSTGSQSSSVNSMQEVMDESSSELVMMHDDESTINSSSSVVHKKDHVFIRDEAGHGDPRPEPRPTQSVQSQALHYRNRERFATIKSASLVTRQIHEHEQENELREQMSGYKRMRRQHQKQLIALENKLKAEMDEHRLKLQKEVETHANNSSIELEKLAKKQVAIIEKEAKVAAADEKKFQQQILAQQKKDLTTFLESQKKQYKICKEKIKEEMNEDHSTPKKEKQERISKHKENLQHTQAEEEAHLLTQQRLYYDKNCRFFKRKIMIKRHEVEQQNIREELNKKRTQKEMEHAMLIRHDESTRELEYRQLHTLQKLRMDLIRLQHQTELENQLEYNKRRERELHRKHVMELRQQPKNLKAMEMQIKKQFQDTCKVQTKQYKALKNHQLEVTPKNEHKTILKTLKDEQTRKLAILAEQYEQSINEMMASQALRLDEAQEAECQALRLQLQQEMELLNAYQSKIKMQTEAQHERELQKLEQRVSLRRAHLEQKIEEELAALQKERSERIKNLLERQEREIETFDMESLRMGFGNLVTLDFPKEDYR
# [3] = system: Mast/stem cell growth factor receptor Kit (Homo sapiens), P10721 [L576P]; assay: Selectivity interaction (KinomeScan (DiscoverX)) EUB0000306b KIT; details: at 1 µM
# [4] = molecular target: Phosphatidylinositol 4,5-bisphosphate 3-kinase catalytic subunit alpha isoform (Homo sapiens, UniProt P42336); assay: Selectivity interaction (KinomeScan (DiscoverX)) EUB0000306b PIK3CA; details: at 1 µM
# Phosphatidylinositol 4,5-bisphosphate 3-kinase catalytic subunit alpha isoform, sequence (P42336 whole entry, canonical isoform): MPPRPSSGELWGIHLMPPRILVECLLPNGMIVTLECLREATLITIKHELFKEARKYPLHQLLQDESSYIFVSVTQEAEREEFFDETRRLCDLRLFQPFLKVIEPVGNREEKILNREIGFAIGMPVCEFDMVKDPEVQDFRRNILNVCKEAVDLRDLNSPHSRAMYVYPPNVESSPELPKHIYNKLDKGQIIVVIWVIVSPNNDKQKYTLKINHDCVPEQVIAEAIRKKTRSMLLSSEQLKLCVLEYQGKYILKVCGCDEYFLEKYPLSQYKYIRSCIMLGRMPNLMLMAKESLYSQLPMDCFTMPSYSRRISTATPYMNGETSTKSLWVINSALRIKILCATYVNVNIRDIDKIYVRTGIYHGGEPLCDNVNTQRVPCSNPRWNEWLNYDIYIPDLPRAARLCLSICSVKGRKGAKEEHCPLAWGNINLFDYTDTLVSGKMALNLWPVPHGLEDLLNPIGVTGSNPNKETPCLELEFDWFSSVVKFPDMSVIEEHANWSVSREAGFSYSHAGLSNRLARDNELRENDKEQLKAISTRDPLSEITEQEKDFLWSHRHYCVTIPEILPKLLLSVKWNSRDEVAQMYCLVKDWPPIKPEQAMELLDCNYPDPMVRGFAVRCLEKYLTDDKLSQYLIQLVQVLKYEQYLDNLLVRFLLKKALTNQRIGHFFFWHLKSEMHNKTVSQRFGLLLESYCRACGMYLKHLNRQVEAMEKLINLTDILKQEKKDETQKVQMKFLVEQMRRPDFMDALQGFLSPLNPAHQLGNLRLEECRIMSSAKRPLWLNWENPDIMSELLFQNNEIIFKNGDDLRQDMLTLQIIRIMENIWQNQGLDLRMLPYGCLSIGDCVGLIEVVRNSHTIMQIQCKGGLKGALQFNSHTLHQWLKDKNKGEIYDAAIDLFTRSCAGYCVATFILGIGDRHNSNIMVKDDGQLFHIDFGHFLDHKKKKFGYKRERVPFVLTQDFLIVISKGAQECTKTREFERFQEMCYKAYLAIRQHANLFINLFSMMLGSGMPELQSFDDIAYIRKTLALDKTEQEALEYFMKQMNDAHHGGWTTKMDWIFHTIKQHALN
# [5] = molecular target: 5-hydroxytryptamine receptor 2A (Homo sapiens, UniProt P28223); assay: Selectivity interaction (GPCR panel (PDSP screen)) EUB0000540a HTR2A
# 5-hydroxytryptamine receptor 2A, sequence (P28223 whole entry): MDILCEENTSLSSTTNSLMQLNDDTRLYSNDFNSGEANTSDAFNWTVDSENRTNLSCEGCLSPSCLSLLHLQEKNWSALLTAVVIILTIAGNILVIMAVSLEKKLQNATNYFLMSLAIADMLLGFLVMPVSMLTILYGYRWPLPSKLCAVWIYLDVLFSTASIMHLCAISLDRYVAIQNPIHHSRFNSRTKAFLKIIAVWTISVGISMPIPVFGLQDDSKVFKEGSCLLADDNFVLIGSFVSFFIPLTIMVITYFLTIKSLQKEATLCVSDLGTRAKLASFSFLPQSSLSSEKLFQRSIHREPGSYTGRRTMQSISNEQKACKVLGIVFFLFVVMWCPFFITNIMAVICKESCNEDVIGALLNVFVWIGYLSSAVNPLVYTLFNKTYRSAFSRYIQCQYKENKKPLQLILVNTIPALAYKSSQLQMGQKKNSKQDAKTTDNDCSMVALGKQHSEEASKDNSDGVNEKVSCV
# [6] = molecular target: 5-hydroxytryptamine receptor 2B (Homo sapiens, UniProt P41595); assay: Selectivity interaction (GPCR panel (PDSP screen)) EUB0000540a HTR2B
# 5-hydroxytryptamine receptor 2B, sequence (P41595 whole entry): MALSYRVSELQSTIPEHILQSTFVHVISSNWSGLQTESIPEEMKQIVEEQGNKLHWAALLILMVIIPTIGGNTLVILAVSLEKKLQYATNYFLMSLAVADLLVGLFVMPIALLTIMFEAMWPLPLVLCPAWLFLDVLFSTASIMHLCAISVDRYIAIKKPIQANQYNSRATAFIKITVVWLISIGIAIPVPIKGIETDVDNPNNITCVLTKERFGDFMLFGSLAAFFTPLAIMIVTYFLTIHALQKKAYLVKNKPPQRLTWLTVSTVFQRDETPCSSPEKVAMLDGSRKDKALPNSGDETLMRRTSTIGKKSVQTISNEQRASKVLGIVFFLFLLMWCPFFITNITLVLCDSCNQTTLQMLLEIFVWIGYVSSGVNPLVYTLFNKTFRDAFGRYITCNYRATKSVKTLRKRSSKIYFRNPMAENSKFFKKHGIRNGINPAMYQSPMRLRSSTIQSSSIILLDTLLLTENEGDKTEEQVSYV
# [7] = molecular target: 5-hydroxytryptamine receptor 2C (Homo sapiens, UniProt P28335); assay: Selectivity interaction (GPCR panel (PDSP screen)) EUB0000540a HTR2C
# 5-hydroxytryptamine receptor 2C, sequence (P28335 whole entry): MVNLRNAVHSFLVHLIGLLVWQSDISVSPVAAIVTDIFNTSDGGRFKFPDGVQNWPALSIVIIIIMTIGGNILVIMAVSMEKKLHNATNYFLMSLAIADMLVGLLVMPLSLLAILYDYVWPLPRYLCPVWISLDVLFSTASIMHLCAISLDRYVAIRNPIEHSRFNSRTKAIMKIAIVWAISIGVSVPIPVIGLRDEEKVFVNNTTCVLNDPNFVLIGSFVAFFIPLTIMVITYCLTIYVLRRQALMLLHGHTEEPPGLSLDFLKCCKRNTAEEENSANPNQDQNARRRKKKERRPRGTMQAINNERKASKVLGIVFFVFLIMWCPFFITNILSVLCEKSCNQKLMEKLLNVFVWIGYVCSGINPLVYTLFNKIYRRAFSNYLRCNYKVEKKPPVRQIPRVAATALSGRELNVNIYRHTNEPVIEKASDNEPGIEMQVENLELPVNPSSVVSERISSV
# [8] = molecular target: T3, Alpha-2C adrenergic receptor (Homo sapiens, UniProt P18825); assay: Selectivity interaction (GPCR panel (PDSP screen)) EUB0000540a ADRA2C
# T3 sequence (P18825 whole entry): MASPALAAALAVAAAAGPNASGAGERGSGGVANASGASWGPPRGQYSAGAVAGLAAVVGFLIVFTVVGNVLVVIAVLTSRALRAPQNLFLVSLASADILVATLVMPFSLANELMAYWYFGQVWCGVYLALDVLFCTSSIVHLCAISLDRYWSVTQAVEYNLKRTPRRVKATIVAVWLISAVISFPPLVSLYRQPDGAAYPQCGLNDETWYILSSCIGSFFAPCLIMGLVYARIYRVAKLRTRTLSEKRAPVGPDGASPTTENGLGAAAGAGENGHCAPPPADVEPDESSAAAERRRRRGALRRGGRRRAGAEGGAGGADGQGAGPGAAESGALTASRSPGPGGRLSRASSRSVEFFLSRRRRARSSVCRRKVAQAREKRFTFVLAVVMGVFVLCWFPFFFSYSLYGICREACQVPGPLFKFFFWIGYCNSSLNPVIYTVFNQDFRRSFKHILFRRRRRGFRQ
# [9] = molecular target: Sigma non-opioid intracellular receptor 1 (Homo sapiens, UniProt Q99720); assay: Selectivity interaction (GPCR panel (PDSP screen)) EUB0000540a SIGMAR1
# Sigma non-opioid intracellular receptor 1, sequence (Q99720 whole entry): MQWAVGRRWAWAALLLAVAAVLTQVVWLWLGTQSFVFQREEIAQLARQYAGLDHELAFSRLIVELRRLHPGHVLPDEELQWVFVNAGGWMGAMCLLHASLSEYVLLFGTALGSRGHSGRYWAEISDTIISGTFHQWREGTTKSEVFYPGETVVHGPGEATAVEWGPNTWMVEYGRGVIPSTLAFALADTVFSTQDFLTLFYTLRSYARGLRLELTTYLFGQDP
# [10] = molecular target: Mitotic checkpoint serine/threonine-protein kinase BUB1 (Homo sapiens) (UniProt O43683); assay: Selectivity interaction (GPCR panel (PDSP screen)) EUB0000540a BUB1; details: at 1 µM
# [11] = molecular target: Serine/threonine-protein kinase WNK2 (Homo sapiens) (UniProt Q9Y3S1); assay: Selectivity interaction (GPCR panel (PDSP screen)) EUB0000540a WNK2; details: at 1 µM
# Serine/threonine-protein kinase WNK2 (Homo sapiens), sequence (Q9Y3S1 whole entry): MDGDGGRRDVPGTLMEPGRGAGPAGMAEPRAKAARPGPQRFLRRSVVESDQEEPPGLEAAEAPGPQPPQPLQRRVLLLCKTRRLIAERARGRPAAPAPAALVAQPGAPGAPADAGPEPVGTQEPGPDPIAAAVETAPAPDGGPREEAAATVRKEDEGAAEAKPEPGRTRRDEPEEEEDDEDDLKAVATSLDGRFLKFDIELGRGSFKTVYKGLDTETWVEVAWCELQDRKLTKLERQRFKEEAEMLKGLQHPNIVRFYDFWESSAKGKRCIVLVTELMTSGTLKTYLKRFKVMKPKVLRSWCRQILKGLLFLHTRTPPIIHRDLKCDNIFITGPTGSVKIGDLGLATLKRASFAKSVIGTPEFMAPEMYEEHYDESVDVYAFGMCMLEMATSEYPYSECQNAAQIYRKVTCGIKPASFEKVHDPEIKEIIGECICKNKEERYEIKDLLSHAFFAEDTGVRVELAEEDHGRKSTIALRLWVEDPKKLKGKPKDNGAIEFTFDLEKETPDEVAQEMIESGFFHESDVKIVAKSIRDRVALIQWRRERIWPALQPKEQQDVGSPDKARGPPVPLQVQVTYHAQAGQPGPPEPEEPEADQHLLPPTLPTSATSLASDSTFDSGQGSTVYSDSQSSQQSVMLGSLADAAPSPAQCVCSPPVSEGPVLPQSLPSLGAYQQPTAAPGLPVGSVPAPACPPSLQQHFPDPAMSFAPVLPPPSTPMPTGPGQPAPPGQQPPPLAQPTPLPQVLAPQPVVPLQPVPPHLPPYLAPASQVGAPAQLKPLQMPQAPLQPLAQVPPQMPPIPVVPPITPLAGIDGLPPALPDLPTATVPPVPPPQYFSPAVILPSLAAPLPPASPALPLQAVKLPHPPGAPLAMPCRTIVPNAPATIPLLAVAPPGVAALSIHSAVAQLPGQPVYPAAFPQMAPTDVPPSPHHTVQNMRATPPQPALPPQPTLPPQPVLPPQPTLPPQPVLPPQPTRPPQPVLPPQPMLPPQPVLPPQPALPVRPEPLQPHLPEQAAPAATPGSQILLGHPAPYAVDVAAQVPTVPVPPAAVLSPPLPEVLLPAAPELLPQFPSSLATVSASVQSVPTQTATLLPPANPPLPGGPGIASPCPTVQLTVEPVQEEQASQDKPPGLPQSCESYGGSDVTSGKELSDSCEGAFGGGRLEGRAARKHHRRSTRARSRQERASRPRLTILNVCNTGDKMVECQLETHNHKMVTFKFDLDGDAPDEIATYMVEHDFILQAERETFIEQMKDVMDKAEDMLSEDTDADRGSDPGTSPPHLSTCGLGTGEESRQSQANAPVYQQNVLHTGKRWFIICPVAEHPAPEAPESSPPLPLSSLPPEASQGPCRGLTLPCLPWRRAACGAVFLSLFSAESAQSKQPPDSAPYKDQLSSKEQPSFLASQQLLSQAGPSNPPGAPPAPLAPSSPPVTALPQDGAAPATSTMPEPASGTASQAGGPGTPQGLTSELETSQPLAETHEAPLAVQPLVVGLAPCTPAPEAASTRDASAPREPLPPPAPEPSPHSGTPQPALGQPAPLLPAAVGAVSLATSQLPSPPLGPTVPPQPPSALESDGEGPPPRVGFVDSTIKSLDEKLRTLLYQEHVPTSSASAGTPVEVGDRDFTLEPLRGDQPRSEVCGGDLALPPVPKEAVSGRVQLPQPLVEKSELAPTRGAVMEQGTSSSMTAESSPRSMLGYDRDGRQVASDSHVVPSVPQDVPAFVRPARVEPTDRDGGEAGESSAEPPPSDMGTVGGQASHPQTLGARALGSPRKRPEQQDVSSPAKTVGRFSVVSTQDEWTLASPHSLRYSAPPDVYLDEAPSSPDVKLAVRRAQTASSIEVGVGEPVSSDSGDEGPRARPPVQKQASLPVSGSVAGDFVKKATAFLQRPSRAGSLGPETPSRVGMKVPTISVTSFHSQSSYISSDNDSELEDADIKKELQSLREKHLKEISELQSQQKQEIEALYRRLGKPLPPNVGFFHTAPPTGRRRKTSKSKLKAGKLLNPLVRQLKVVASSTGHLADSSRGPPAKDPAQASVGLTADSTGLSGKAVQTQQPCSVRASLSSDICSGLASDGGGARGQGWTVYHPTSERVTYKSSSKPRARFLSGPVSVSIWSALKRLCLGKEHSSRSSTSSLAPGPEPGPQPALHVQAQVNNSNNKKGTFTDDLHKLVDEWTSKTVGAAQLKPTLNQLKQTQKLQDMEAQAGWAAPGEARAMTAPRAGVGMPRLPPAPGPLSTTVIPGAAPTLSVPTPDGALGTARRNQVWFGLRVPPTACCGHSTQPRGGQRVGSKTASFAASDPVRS
# [12] = molecular target: T1, Gamma-aminobutyric acid receptor subunit alpha-1; assay: Selectivity interaction (GPCR panel (PDSP screen)) EUB0000540a GABRA1
# [13] = molecular target: Sigma intracellular receptor 2 (Homo sapiens, UniProt Q5BJF2); assay: Selectivity interaction (GPCR panel (PDSP screen)) EUB0000540a TMEM97
# [14] = molecular target: T4, Mitogen-activated protein kinase kinase kinase 13 (Homo sapiens) (UniProt O43283); assay: Selectivity interaction (KinomeScan (DiscoverX)) EUB0000540a MAP3K13; details: at 1 µM
# T4 sequence (whole entry): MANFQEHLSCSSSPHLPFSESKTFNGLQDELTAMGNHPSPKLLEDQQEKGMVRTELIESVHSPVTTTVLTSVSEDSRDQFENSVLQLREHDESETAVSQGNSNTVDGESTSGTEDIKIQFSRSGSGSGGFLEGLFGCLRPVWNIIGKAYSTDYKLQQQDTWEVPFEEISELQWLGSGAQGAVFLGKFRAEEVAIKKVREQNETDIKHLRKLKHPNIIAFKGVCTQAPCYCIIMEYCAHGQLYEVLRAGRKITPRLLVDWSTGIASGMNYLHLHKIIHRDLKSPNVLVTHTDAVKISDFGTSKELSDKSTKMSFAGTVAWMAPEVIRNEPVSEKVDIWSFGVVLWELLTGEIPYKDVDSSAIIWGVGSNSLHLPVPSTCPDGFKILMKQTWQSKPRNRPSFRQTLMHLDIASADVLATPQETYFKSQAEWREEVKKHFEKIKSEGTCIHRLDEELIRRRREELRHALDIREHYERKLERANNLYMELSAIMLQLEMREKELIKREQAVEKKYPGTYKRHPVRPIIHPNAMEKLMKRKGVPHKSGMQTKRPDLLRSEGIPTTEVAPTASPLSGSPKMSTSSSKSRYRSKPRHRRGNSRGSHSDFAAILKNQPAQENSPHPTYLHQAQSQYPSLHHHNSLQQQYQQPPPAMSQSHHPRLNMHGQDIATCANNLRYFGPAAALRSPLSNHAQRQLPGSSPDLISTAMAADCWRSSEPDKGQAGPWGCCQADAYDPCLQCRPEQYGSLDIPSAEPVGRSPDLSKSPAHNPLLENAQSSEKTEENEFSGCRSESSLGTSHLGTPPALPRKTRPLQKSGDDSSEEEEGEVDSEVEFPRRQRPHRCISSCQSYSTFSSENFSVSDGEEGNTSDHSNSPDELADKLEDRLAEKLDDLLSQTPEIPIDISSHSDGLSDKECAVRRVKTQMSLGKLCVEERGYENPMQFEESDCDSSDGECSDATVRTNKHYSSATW
Ki [1] [nM],% of control [2] [%],% of control [3] [%],% of control [4] [%],Ki [5] [nM],Ki [6] [nM],Ki [7] [nM],Ki [8] [nM],Ki [9] [nM],% of control [10] [%],% of control [11] [%],Ki [12] [nM],Ki [13] [nM],% of control [14] [%],Structure (SMILES)
1140,42,0,45,,,,,,,,,,,O=C(Nc1cccnn1)N1CCC(=Cc2cccc(Oc3ccc(C(F)(F)F)cn3)c2)CC1
,,,,249,1340,1660,596,472,1.4,0,1140,437,0,O=C(Nc1cccnn1)N1CC(C/C=C/c2cncc(Oc3ccc(C(F)(F)F)cn3)n2)C1
